Assay [1] has as its target T1, SARS-CoV-2 3CL^pro (Severe acute respiratory syndrome coronavirus 2, UniProt P0DTD1). The assay is described as follows: FRET dose-response 3CL^pro inhibition assay. Type of assay: biochemical.
Assay [2] concerns the target T1, SARS-CoV-2 3CL^pro. The assay is described as follows: Surface plasmon resonance binding to immobilised 3CL^pro.
Assay [3] deals with T1, SARS-CoV-2 3CL^pro. The assay is described as follows: Initial FRET screening for 3CL^pro inhibition at 10 µM polyphenol. The assay is classed as biochemical. Particulars: 0.1 µM 3CL^pro, 16 µM FRET substrate, after 10 min.

The values that follow come from PMC8592230 (Food Chemistry, 2021).

One may read the IC50 as the point on the concentration scale where inhibition reaches its midpoint. A lower IC50 goes with inhibition by little substance. One may read the Kd as the free concentration of one partner at which half of the binding sites on the other are occupied at equilibrium, for simple one-to-one binding. Higher therefore signals weaker binding. As for `O=c1oc2c(O)c(O)cc3c(=O)oc4c(O)c(O)cc1c4c23` [Ellagic acid], at SARS-CoV-2 3CL^pro [1], it took 11.8 µM to reach half-maximal inhibition (IC50). On SARS-CoV-2 3CL^pro [2], the dissociation constant (Kd) worked out at 311 ± 69 µM.
With `Oc1ccc(/C=C/c2cc(O)cc(O)c2)cc1` [Resveratrol], at SARS-CoV-2 3CL^pro [1], inhibition was half-maximal at 16.9 µM (IC50). Moreover, the “SPR binding to immobilised 3CL^pro (in words)” value at SARS-CoV-2 3CL^pro [2] (SPR, up to 200 µM polyphenol, 25 °C) is recorded as “non-specific binding”.
Turning to `COc1cc(C(=O)O)cc(OC)c1O` [Syringic acid], on SARS-CoV-2 3CL^pro [3], the “inhibition of 3CL^pro” value is given as “no inhibition at all”.
